Measurements: the supplement of paper PMC10307832

Assays:
Test in all cases: relative viability (nuclei count vs DMSO), 5 days (fraction); higher = more cells survive
Pictilisib + OSI-027 = compound: CS(=O)(=O)N1CCN(Cc2cc3nc(-c4cccc5[nH]ncc45)nc(N4CCOCC4)c3s2)CC1 [Pictilisib] + COc1cccc2cc(-c3nc([C@H]4CC[C@H](C(=O)O)CC4)n4ncnc(N)c34)[nH]c12 [OSI-027] (partner 0.5 µM)
In short: (§1)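 Medians of duplicate plates are given as relative viability. That measure is the nuclei count in treated wells divided by the count in vehicle wells. Counts were taken on 4× images of lung cancer cell lines in 1536-well plates, 5 days after pin-tool dosing the day after seeding with one drug alone or a fixed anchor-drug dose plus five library-drug doses (not always all listed) in √10 steps.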

Pictilisib + Crizotinib = compound: CS(=O)(=O)N1CCN(Cc2cc3nc(-c4cccc5[nH]ncc45)nc(N4CCOCC4)c3s2)CC1 [Pictilisib] + C[C@@H](Oc1cc(-c2cnn(C3CCNCC3)c2)cnc1N)c1c(Cl)ccc(F)c1Cl [Crizotinib] (partner 1 µM)
In short: as §1

Pictilisib + Olaparib = compound: CS(=O)(=O)N1CCN(Cc2cc3nc(-c4cccc5[nH]ncc45)nc(N4CCOCC4)c3s2)CC1 [Pictilisib] + O=C(c1cc(Cc2n[nH]c(=O)c3ccccc23)ccc1F)N1CCN(C(=O)C2CC2)CC1 [Olaparib] (partner 8 µM)
In short: as §1

MK-2206 + Foretinib = compound: NC1(c2ccc(-c3nc4ccn5c(=O)[nH]nc5c4cc3-c3ccccc3)cc2)CCC1 [MK-2206] + COc1cc2c(Oc3ccc(NC(=O)C4(C(=O)Nc5ccc(F)cc5)CC4)cc3F)ccnc2cc1OCCCN1CCOCC1 [Foretinib] (partner 0.25 µM)
In short: as §1

MK-2206 + Olaparib = compound: NC1(c2ccc(-c3nc4ccn5c(=O)[nH]nc5c4cc3-c3ccccc3)cc2)CCC1 [MK-2206] + O=C(c1cc(Cc2n[nH]c(=O)c3ccccc23)ccc1F)N1CCN(C(=O)C2CC2)CC1 [Olaparib] (partner 8 µM)
In short: as §1

Cell Line | relative viability (Pictilisib + OSI-027; first compound 0.02 µM) | relative viability (Pictilisib + OSI-027; first compound 0.06325 µM) | relative viability (Pictilisib + OSI-027; first compound 0.6325 µM) | relative viability (Pictilisib + OSI-027; first compound 2 µM) | relative viability (Pictilisib + Crizotinib; first compound 0.02 µM) | relative viability (Pictilisib + Crizotinib; first compound 0.06325 µM) | relative viability (Pictilisib + Crizotinib; first compound 0.6325 µM) | relative viability (Pictilisib + Crizotinib; first compound 2 µM) | relative viability (Pictilisib + Olaparib; first compound 0.02 µM) | relative viability (Pictilisib + Olaparib; first compound 0.06325 µM) | relative viability (Pictilisib + Olaparib; first compound 0.6325 µM) | relative viability (Pictilisib + Olaparib; first compound 2 µM) | relative viability (MK-2206 + Foretinib; first compound 0.01 µM) | relative viability (MK-2206 + Foretinib; first compound 0.03162 µM) | relative viability (MK-2206 + Foretinib; first compound 0.3162 µM) | relative viability (MK-2206 + Foretinib; first compound 1 µM) | relative viability (MK-2206 + Olaparib; first compound 0.01 µM) | relative viability (MK-2206 + Olaparib; first compound 0.03162 µM) | relative viability (MK-2206 + Olaparib; first compound 0.3162 µM) | relative viability (MK-2206 + Olaparib; first compound 1 µM)
NCI-H23 | 0.708 | 0.625 | 0.392 | 0.25 | 0.424 | 0.592 | 0.344 | 0.354 | 0.298 | 0.389 | 0.355 | 0.198 | 1.1 | 1.11 | 1.05 | 0.902 | 0.302 | 0.326 | 0.255 | 0.285
HCC-827 | 0.824 | 0.696 | 0.338 | 0.192 | 0.901 | 0.991 | 0.921 | 0.548 | 0.795 | 0.512 | 0.433 | 0.284 | 1.13 | 1.05 | 0.945 | 0.984 | 0.671 | 0.678 | 0.506 | 0.523
PC-3 [JPC-3] | 0.591 | 0.718 | 0.621 | 0.433 | 0.983 | 0.969 | 1.03 | 0.905 | 1.24 | 1.31 | 1.21 | 0.754 | 1.05 | 1.12 | 0.99 | 1.04 | 1.09 | 1.12 | 1.18 | 1.12
NCI-H1355 | 0.412 | 0.358 | 0.232 | 0.237 | 1.1 | 0.983 | 0.876 | 0.606 | 0.718 | 0.727 | 0.651 | 0.413 | 0.94 | 1.02 | 0.952 | 0.952 | 0.767 | 0.829 | 0.672 | 0.761
NCI-H727 | 0.741 | 0.649 | 0.548 | 0.333 | 0.934 | 0.912 | 0.76 | 0.401 | 0.796 | 0.801 | 0.72 | 0.548 | 1.12 | 0.889 | 0.838 | 0.942 | 0.696 | 0.674 | 0.716 | 0.675
NCI-H1975 | 0.867 | 0.574 | 0.234 | 0.212 | 0.915 | 0.9 | 0.713 | 0.307 | 0.764 | 0.818 | 0.523 | 0.248 | 1.08 | 0.96 | 0.91 | 0.801 | 0.705 | 0.782 | 0.764 | 0.663
NCI-H460 | 0.612 | 0.576 | 0.212 | 0.0454 | 0.956 | 0.945 | 0.501 | 0.0993 | 0.425 | 0.436 | 0.395 | 0.173 | 0.984 | 1.06 | 1.1 | 1.04 | 0.397 | 0.465 | 0.484 | 0.5
EPLC-272H | 0.296 | 0.284 | 0.242 | 0.18 | 0.995 | 0.993 | 0.702 | 0.72 | 0.773 | 0.731 | 0.36 | 0.241 | 0.811 | 0.686 | 0.649 | 0.633 | 0.855 | 0.673 | 0.796 | 0.527
SK-LU-1 | 0.38 | 0.335 | 0.185 | 0.19 | 0.957 | 1.17 | 0.945 | 0.697 | 0.451 | 0.492 | 0.409 | 0.367 | 0.844 | 0.776 | 0.814 | 0.791 | 0.47 | 0.457 | 0.47 | 0.371
NCI-H322M | 0.546 | 0.538 | 0.366 | 0.392 | 0.834 | 0.936 | 0.878 | 0.834 | 0.76 | 0.838 | 0.756 | 0.525 | 0.871 | 1.11 | 1.1 | 1.01 | 0.778 | 0.806 | 0.782 | 0.874
NCI-H2405 | 0.548 | 0.569 | 0.486 | 0.278 | 0.884 | 0.854 | 0.745 | 0.558 | 0.871 | 0.867 | 0.735 | 0.422 | 1.03 | 1.08 | 0.991 | 0.98 | 0.837 | 0.899 | 0.875 | 0.825
NCI-H1666 | 0.877 | 0.858 | 0.636 | 0.477 | 1.07 | 1.05 | 0.815 | 0.491 | 0.751 | 0.762 | 0.813 | 0.756 | 1 | 0.985 | 1.02 | 0.91 | 0.702 | 0.794 | 0.802 | 0.774
NCI-H358 | 0.684 | 0.664 | 0.357 | 0.127 | 0.658 | 0.455 | 0.607 | 0.408 | 0.627 | 0.729 | 0.479 | 0.271 | 0.767 | 0.841 | 0.661 | 0.685 | 0.61 | 0.641 | 0.541 | 0.56
H3255 | 0.58 | 0.578 | 0.389 | 0.309 | 0.854 | 0.907 | 0.803 | 0.555 | 0.585 | 0.599 | 0.472 | 0.412 | 0.866 | 0.971 | 0.731 | 0.746 | 0.539 | 0.58 | 0.538 | 0.518
LCLC-103H | 0.494 | 0.438 | 0.287 | 0.262 | 1.05 | 1.04 | 0.882 | 0.71 | 0.722 | 0.851 | 0.701 | 0.475 | 0.867 | 0.792 | 0.669 | 0.698 | 0.548 | 0.768 | 0.777 | 0.731
